Experiments:
[1] = tested on: sensory neurons from DRG of Sprague Dawley rat; assay: Total neurite outgrowth at low concentrations of M1R antagonists (immunostaining); type: cell-based; conditions: 24 hr culture
Procedure: Sensory neurons from cervical, thoracic and lumbar DRG of an adult 3-4 month old male Sprague Dawley rat were isolated and dissociated using the method described in Example 1, and then were cultured for 24 h in serum-free and insulin-free F12 medium in the presence of modified N2 additives. […] Neurite outgrowth was then assessed after a culture period of 24 hr.
Total neurite lengths (i.e., the sum of the length of all neurites produced by an individual neuron) were assessed using an immunostaining method. […] Four images were captured per well and the replicate well frequency was set to n=6. The neuronal marker β-tubulin III (Sigma-Aldrich Canada Ltd.) was applied to formalin fixed cells. The marker was tagged with the fluorescent conjugate Alexa Fluor 488 (Invitrogen Canada Ltd.). Fluorescent images were collected using an Olympus IX71 inverted microscope with a 20×/0.45 PH1 [sequence] objective that was suitable for resolving images on plastic surfaces. […] Captured image fluorescence was thereafter converted to a grayscale 8-bit image to quantify total pixel volume. […] Total pixel volume of the neuron specific cell bodies and neurites were quantified. […] The net pixel volume was normalized against the number of neuronal cells per quantified field.

[2] = tested on: AMP-activated protein kinase (AMPK); assay: Phosphorylation of AMPK in cultured sensory neurons (Western blot); type: cell-based, rat; conditions: 10 μM
Procedure: Samples were taken immediately (time 0) and then after 15 min, 30 min, 60 min, and 6 hr of incubation. Quantitative Western blotting was performed as following the procedure taught in Example 5. DRG homogenates of 5-10 μg of protein were resolved on a 10% SDS-PAGE gel and electroblotted onto nitrocellulose membrane. Blots were then blocked in 5% nonfat milk containing 0.05% Tween-20, rinsed in PBS (pH 7.4) and incubated with the following antibodies: (i) polyclonal anti-phospho AMPK (on Thr-172, 1:1000, Cell Signaling Technology, Danvers, MA, US), and (ii) extracellular signal-regulated kinase (T-ERK; 1:2000, Covance, Princeton, NJ, US). The blots were rinsed, incubated in Western blotting Luminol Reagent (Santa Cruz Biotechnology Inc., Santa Cruz, CA, US) and imaged using a BioRad Fluor-S image analyzer (BioRad, Hercules, CA, US).

[3] = tested on: STZ-induced diabetic Swiss Webster mice; assay: Reversal of thermal hypoalgesia and IENF loss in STZ-induced diabetic mice, i.p.; type: in vivo, mouse; conditions: 10 mg/kg i.p. daily for 4 weeks from week 8
Procedure: Swiss Webster (outbred) mice were made diabetic with 2 injections of 90 mg/kg STZ on consecutive days. […] The mice were maintained for 8 weeks after STZ injections. Diabetic neuropathy was well-established in the mice that received STZ injections as evidenced by signs of neuropathy (thermal hypoalgesia). A cohort then received 10 mg/kg VU255035 by i.p. injection daily for 4 weeks.

[4] = tested on: M1R relative to M(2)-M(5); conditions: cited from earlier work
[5] = tested on: M1R; conditions: cited from earlier work
[6] = in vivo in mice; cited from earlier work
[7] = tested on: sensory neurons from DRG of non-diabetic Sprague Dawley rat; assay: Neurite outgrowth from excised neurons from a normal rat; type: cell-based; conditions: 24 hr; for neurite outgrowth rates: higher dosages 0.1 to 10.0 μM; for neurite outgrowth: lowest dosage of 0.01 μM
Source text: Sensory neurons from cervical, thoracic and lumbar DRG of a 3-4 month old adult male ZDF diabetic rat (model of type 2 diabetes) were isolated and dissociated using a method based on the teachings of Fernyhough et al. (1993, Brain Res. 607:117-124), Gardiner et al. (2005, Mol. Cell Neurosci. 28:229-240), and Huang et al. (2003, Diabetes 52:2129-2136). Briefly, DRG were removed from all spinal levels, their roots trimmed, and then the cells were chemically dissociated in 0.125% collagenase (Worthington Biochemical Corp., Lakewood, NJ, USA) in F12 nutrient medium (Invitrogen Canada Inc., Burlington, ON, Canada) for 1.5 h at 37° C. The ganglia were then mechanically dissociated by treatment with 0.05% trypsin (Worthington Biochemical Corp.) in F12 nutrient medium, followed by trituration with a glass pipette. […] The neuron cells were plated onto poly-L-ornithine-laminin-coated NUNC 48-well or 96-well plastic dishes with optically clear glass bottoms in serum-free and insulin-free F12 medium in the presence of modified N2 additives (containing no insulin) at 37° C. in a 95% air/5% CO2 humidified incubator. All cultures were exposed to the following additional conditions: 10 mM D-glucose, 0.1 nM insulin, 0.3 ng/ml NGF, 1 ng/ml NT-3 and 5 ng/ml GDNF (all obtained from Sigma-Aldrich Canada Ltd.). […] Neurite outgrowth was then assessed at 24 hr as previously described by Fernyhough et al. (1993) and Gardiner et al. (2005).
Sensory neurons from cervical, thoracic and lumbar DRG of a 3-4 month old non-diabetic adult male Sprague Dawley rat were isolated and dissociated using the method described in Example 1. The excised and dissociated neuron cells were plated onto poly-L-ornithine-laminin-coated NUNC 48-well or 96-well plastic dishes with optically clear glass bottoms in serum-free and insulin-free F12 medium in the presence of modified N2 additives (containing no insulin) at 37° C. in a 95% air/5% CO2 humidified incubator. All cultures were exposed to the following additional conditions: 10 mM D-glucose, 0.1 nM insulin, 0.3 ng/ml NGF, 1 ng/ml NT-3 and 5 ng/ml GDNF (all obtained from Sigma-Aldrich Canada Ltd.). […] Neurite outgrowth was then assessed at 24 hr.

Structure (SMILES) | concentration that significantly increased total neurite outgrowth [1] [µM] | total AMPK levels [2] | phosphorylation of AMPK (P-AMPK) relative to total ERK ([2]; 30-60 min) | phosphorylation of AMPK (P-AMPK) relative to total ERK ([2]; by 15 min) | phosphorylation of AMPK (P-AMPK) relative to total ERK ([2]; by 6 hr) | loss of IENF [3] | loss of SNP [3] | thermal hypoalgesia [3] | selectivity to M1R relative to M2, M3, M4 and M5 receptors [4] [times] | selectivity for M1R relative to M(2)-M(5) ([4]; equilibrium radioligand binding and functional studies) | mode of antagonism [5] | blood brain barrier penetration [6] | neurite outgrowth rates [7] | neurite outgrowth [7]
O=C(CCNS(=O)(=O)c1cccc2nsnc12)N1CCN(c2ccncc2)CC1 [VU255035, N-(3-oxo-3-(4-(pyridine-4-yl)piperazin-1-yl)propyl)-benzo[c][1,2,5]thiadiazole-4 sulfonamide] | ≥ 0.03 | not affected | maintained phosphorylation | significantly raised phosphorylation of AMPK | return to baseline | significantly reversed loss | significantly reversed loss | significant reversal back to control levels of thermal sensitivity | 75 | greater than 75 fold | competitive orthosteric antagonist of M1R | excellent blood brain barrier penetration | – | –
CN1[C@@H]2CC[C@H]1C[C@@H](OC(=O)C(CO)c1ccccc1)C2 (stereo partly shown) [atropine] | – | – | – | – | – | – | – | – | – | – | – | – | did not further increase neurite outgrowth rates | more than tripled
Cc1scc2c1N(C(=O)CN1CCN(C)CC1)c1ccccc1NC2=O [telenzepine, Telenzepine] | – | – | – | – | – | – | – | – | – | – | – | – | tripled | more than doubled
